Patent EP0750903A1, “Deodorant composition” (Coöperatie Cosun U.A., priority 1995, dated 1997)

Experiments:
Test in all cases: plate method, inhibition of growth on TSBA medium
Assay type in all cases: cell-based
Conditions in all cases: Table C; 1:50 dilution of an overnight culture; ester conc 400 ug/ml
[1] = tested on: Corynebacterium xerosis ATCC 373
Procedure: (§1) The tests reproduced below have been carried out on the basis of four strains which occur in the human armpit flora, viz. Micrococcus luteus ATCC 533, Staphylococcus epidermis ATCC 155, Corynebacterium xerosis ATCC 373 and Corynebacterium minutissimum ATCC 23348 (ATCC = American Type Culture Collection, Maryland 20852, USA).
(§2) The Micrococcus luteus strain has been incubated at 30°C and the other three strains at 37°C. All strains have been tested for purity and then frozen in glycerol in liquid nitrogen. In addition, the strains have been kept on plate (TSBA medium; TSBA = trypton soya broth (medium CM 129 of Oxoid Ltd. + 1% agar), and regularly re-inoculated (at least once a week).
(§3) The abovementioned sucrose-fatty acid esters have been used in concentrations of 400-800-1600-3200-6400 mg/l.
(§4) The plate method was made use of as test method. In this method, the medium was prepared in sucrose-fatty acid solutions in the above concentrations. The plate, which was provided with a TSBA medium (see above), was then inoculated with 100 µl of culture and incubated at the desired temperature (see above). In this connection, use was made of overnight cultures in TSB (= trypton soya broth) which have been inoculated in undiluted and diluted form.
(§5) The inhibition obtained in the test method of the growth of the respective strains is shown with the values 0 (no inhibition) and with 1, 2, 3, 4 or 5 plus signs, where + 0 - 20% inhibition ++ 20 - 40% inhibition +++ 40 - 60% inhibition ++++ 60 - 80% inhibition +++++ 80 - 100% inhibition.
(§6) A blank determination without sucrose-fatty acid solution on TSBA was used as a control (pos. cont. TSBA; see Tables A and B in Examples I and II).

[2] = tested on: Corynebacterium minutissimum ATCC 23348
Procedure: as §1, §2, §3, §4, §5, §6

[3] = tested on: Micrococcus luteus ATCC 533
Procedure: as §1, §2, §3, §4, §5, §6

[4] = tested on: Staphylococcus epidermis ATCC 155
Procedure: as §1, §2, §3, §4, §5, §6

Row | Substance | inhibition of the growth, C.xerosis [1] | inhibition of the growth, C.minutissimum [2] | inhibition of the growth, M.luteus [3] | inhibition of the growth, S.epidermis [4]
1 | lactitol stearate | +++++ (+++++ 80 - 100% inhibition) | +++++ (+++++ 80 - 100% inhibition) | +++++ (+++++ 80 - 100% inhibition) | 0 (0 (no inhibition))
2 | sorbitol stearate | 0 (0 (no inhibition)) | +++++ (+++++ 80 - 100% inhibition) | 0 (0 (no inhibition)) | 0 (0 (no inhibition))
3 | sucrose behenate | +++ (+++ 40 - 60% inhibition) | +++++ (+++++ 80 - 100% inhibition) | 0 (0 (no inhibition)) | 0 (0 (no inhibition))
4 | sucrose hydroxystearate | +++++ (+++++ 80 - 100% inhibition) | +++++ (+++++ 80 - 100% inhibition) | +++ (+++ 40 - 60% inhibition) | 0 (0 (no inhibition))
5 | sucrose isostearate | +++++ (+++++ 80 - 100% inhibition) | +++++ (+++++ 80 - 100% inhibition) | + (+ 0 - 20% inhibition) | 0 (0 (no inhibition))
6 | sucrose oleate | +++++ (+++++ 80 - 100% inhibition) | +++++ (+++++ 80 - 100% inhibition) | +++ (+++ 40 - 60% inhibition) | 0 (0 (no inhibition))
